Test results reported in patent US9458137B2, “Substituted indol-5-ol derivatives and their therapeutical applications” (NantBioScience, Inc., priority 2012, dated 2016).

Columns and labels:
Test in all cases: Kinase panel activity
Format in all cases: biochemical
Details in all cases: 0.1 μM, ATP Km
[1] = molecular target: CDK2/cyclinA(h) (Homo sapiens, UniProt P24941)
Description: (§1) The effect of NTW-3475 on kinase activity was tested for a wide range of kinases and is shown in Table 2: Summary Sheet, Activity % ATP Concentration: Km

[2] = molecular target: CDK5/p25(h) (Homo sapiens, UniProt Q00535)
Description: as §1

[3] = molecular target: PASK(h) (Homo sapiens, UniProt Q96RG2)
Description: as §1

[4] = molecular target: T1, Ron(h) (Homo sapiens, UniProt Q04912)
T1 construct: purchased Millipore (KinaseProfiler service)
Description: as §1

[5] = molecular target: T2, EGFR(L861Q)(h) (Homo sapiens, UniProt P00533, L861Q)
T2 construct: purchased Millipore (KinaseProfiler service)
Description: as §1

[6] = molecular target: CHK2(h) (Homo sapiens, UniProt O96017)
Description: as §1

[7] = molecular target: PKCη(h) (Homo sapiens, UniProt P24723)
Description: as §1

[8] = molecular target: T3, Ros(h) (Homo sapiens, UniProt P08922)
T3 construct: purchased Millipore (KinaseProfiler service)
Description: as §1

[9] = molecular target: PDK1(h) (Homo sapiens, UniProt O15530)
Description: as §1

[10] = molecular target: NLK(h) (Homo sapiens, UniProt Q9UBE8)
Description: as §1

[11] = molecular target: T4, TSSK1(h) (Homo sapiens, UniProt Q9BXA7)
T4 construct: purchased Millipore (KinaseProfiler service)
Description: as §1

[12] = molecular target: IRR(h) (Homo sapiens, UniProt P14616)
Description: as §1

[13] = molecular target: CDK3/cyclinE(h) (Homo sapiens, UniProt Q00526)
Description: as §1

[14] = molecular target: T5, SGK(h) (Homo sapiens, UniProt O00141)
T5 construct: purchased Millipore (KinaseProfiler service)
Description: as §1

[15] = molecular target: CaMKI(h) (Homo sapiens, UniProt Q14012)
Description: as §1

[16] = molecular target: T6, TSSK2(h) (Homo sapiens, UniProt Q96PF2)
T6 construct: purchased Millipore (KinaseProfiler service)
Description: as §1

[17] = molecular target: T7, TrkB(h) (Homo sapiens, UniProt Q16620)
T7 construct: purchased Millipore (KinaseProfiler service)
Description: as §1

[18] = molecular target: CHK2(II57T)(h) (Homo sapiens, UniProt O96017, I157T)
Description: as §1

[19] = molecular target: HIPK2(h) (Homo sapiens, UniProt Q9H2X6)
Description: as §1

[20] = molecular target: T8, SAPK3(h) (Homo sapiens, UniProt P53778)
T8 construct: purchased Millipore (KinaseProfiler service)
Description: as §1

[21] = molecular target: T9, MSK2(h) (Homo sapiens, UniProt O75676)
T9 construct: purchased Millipore (KinaseProfiler service)
Description: as §1

[22] = molecular target: T10, Tie2(h) (Homo sapiens, UniProt Q02763)
T10 construct: purchased Millipore (KinaseProfiler service)
Description: as §1

[23] = molecular target: T11, EphA1(h) (Homo sapiens, UniProt P21709)
T11 construct: purchased Millipore (KinaseProfiler service)
Description: as §1

[24] = molecular target: T12, ROCK-II(h) (Homo sapiens, UniProt O75116)
T12 construct: purchased Millipore (KinaseProfiler service)
Description: as §1

[25] = molecular target: NEK3(h) (Homo sapiens, UniProt P51956)
Description: as §1

[26] = molecular target: Ab1(M351T)(h) (Homo sapiens, UniProt P00519, M351T)
Description: as §1

[27] = molecular target: MAPK2(h) (Homo sapiens, UniProt P28482)
Description: as §1

[28] = molecular target: T13, EGFR(h) (Homo sapiens, UniProt P00533)
T13 construct: purchased Millipore (KinaseProfiler service)
Description: as §1

[29] = molecular target: CDK9/cyclin T1(h) (Homo sapiens, UniProt P50750)
Description: as §1

[30] = molecular target: BTK(R28H)(h) (Homo sapiens, UniProt Q06187, R28H)
Description: as §1

[31] = molecular target: T14, Ret(V804M)(h) (Homo sapiens, UniProt P07949, V804M)
T14 construct: purchased Millipore (KinaseProfiler service)
Description: as §1

[32] = molecular target: CK1γ3(h) (Homo sapiens, UniProt Q9Y6M4)
Description: as §1

[33] = molecular target: DAPK1(h) (Homo sapiens, UniProt P53355)
Description: as §1

[34] = molecular target: CK1δ(h) (Homo sapiens, UniProt P48730)
Description: as §1

[35] = molecular target: T15, Ret(V804L)(h) (Homo sapiens, UniProt P07949, V804L)
T15 construct: purchased Millipore (KinaseProfiler service)
Description: as §1

[36] = molecular target: T16, EphB1(h) (Homo sapiens, UniProt P54762)
T16 construct: purchased Millipore (KinaseProfiler service)
Description: as §1

[37] = molecular target: Ab1(h) (Homo sapiens, UniProt P00519)
Description: as §1

[38] = molecular target: T17, PRK2(h) (Homo sapiens, UniProt Q16513)
T17 construct: purchased Millipore (KinaseProfiler service)
Description: as §1

[39] = molecular target: ARK5(h) (Homo sapiens, UniProt O60285)
Description: as §1

T8 sequence (P53778 whole entry): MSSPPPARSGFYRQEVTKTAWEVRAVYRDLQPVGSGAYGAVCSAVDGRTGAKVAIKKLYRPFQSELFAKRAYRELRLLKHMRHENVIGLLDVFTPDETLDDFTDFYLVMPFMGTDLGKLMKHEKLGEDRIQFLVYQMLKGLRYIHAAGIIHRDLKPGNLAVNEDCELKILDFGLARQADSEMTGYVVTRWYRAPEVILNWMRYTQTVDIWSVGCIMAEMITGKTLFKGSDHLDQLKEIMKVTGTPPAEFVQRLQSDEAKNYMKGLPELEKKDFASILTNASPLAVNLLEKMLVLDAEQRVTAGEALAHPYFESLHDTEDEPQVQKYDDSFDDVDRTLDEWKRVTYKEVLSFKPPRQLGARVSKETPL
T16 sequence (P54762 18-984): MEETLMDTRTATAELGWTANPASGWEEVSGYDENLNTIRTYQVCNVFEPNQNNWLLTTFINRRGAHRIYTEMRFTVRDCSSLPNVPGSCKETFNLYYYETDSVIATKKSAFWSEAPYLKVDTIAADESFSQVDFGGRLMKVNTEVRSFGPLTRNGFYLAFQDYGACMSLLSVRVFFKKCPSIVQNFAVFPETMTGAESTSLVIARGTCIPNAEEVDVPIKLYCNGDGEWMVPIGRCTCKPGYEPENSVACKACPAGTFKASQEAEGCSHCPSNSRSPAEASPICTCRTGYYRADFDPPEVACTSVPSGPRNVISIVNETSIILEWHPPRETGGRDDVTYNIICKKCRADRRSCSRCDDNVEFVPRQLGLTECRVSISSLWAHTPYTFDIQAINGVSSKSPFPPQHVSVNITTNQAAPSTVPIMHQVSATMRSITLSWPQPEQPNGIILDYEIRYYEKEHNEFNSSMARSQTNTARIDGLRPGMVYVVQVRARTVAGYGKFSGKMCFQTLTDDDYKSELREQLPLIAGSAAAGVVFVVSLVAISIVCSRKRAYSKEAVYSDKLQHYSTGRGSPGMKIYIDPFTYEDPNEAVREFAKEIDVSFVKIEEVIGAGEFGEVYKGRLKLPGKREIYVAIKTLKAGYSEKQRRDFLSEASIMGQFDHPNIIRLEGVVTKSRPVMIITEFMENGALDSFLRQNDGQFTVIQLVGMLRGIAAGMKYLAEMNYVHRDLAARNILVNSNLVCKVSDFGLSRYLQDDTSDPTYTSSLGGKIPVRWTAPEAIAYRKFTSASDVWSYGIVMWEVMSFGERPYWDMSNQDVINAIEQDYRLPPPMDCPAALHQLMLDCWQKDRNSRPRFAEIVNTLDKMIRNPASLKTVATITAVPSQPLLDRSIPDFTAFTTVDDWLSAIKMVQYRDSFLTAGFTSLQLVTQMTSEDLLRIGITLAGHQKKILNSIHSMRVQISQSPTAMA
Sequence of CDK3/cyclinE(h) (Q00526 whole entry): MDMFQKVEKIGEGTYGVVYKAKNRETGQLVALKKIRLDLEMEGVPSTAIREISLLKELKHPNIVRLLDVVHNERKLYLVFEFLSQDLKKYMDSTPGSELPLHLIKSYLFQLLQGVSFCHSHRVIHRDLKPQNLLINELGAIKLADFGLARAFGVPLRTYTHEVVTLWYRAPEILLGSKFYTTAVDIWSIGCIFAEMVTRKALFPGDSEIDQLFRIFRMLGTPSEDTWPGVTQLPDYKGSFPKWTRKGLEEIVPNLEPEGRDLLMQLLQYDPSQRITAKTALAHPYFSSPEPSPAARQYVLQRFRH
Sequence of CDK3/cyclinE(h) (P24864 whole entry partner): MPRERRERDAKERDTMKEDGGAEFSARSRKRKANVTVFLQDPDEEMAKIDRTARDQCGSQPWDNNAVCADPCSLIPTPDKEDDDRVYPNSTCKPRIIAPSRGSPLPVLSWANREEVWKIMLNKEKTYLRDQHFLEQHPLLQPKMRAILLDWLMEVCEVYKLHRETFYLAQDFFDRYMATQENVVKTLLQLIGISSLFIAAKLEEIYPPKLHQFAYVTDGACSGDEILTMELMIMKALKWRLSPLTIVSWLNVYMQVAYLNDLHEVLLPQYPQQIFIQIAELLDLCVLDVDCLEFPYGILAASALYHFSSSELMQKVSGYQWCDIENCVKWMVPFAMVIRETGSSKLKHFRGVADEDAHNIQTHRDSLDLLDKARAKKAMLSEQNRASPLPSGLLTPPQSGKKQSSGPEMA
Sequence of CDK5/p25(h) (Q00535 whole entry): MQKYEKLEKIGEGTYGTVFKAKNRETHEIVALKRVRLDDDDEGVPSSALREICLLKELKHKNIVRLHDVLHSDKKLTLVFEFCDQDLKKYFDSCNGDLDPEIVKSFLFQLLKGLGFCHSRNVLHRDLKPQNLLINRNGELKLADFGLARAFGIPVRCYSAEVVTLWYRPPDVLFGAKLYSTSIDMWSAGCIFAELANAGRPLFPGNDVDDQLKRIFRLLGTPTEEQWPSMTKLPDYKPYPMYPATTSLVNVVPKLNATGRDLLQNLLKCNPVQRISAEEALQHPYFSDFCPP
Sequence of CDK5/p25(h) (Q15078 99-307 partner limits assumed): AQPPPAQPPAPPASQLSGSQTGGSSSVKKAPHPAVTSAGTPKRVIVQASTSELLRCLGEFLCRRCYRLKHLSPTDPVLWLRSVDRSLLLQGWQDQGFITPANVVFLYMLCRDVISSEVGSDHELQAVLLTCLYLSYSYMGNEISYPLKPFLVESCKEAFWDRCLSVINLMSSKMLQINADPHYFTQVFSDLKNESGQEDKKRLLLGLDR
Sequence of PASK(h) (Q96RG2 whole entry): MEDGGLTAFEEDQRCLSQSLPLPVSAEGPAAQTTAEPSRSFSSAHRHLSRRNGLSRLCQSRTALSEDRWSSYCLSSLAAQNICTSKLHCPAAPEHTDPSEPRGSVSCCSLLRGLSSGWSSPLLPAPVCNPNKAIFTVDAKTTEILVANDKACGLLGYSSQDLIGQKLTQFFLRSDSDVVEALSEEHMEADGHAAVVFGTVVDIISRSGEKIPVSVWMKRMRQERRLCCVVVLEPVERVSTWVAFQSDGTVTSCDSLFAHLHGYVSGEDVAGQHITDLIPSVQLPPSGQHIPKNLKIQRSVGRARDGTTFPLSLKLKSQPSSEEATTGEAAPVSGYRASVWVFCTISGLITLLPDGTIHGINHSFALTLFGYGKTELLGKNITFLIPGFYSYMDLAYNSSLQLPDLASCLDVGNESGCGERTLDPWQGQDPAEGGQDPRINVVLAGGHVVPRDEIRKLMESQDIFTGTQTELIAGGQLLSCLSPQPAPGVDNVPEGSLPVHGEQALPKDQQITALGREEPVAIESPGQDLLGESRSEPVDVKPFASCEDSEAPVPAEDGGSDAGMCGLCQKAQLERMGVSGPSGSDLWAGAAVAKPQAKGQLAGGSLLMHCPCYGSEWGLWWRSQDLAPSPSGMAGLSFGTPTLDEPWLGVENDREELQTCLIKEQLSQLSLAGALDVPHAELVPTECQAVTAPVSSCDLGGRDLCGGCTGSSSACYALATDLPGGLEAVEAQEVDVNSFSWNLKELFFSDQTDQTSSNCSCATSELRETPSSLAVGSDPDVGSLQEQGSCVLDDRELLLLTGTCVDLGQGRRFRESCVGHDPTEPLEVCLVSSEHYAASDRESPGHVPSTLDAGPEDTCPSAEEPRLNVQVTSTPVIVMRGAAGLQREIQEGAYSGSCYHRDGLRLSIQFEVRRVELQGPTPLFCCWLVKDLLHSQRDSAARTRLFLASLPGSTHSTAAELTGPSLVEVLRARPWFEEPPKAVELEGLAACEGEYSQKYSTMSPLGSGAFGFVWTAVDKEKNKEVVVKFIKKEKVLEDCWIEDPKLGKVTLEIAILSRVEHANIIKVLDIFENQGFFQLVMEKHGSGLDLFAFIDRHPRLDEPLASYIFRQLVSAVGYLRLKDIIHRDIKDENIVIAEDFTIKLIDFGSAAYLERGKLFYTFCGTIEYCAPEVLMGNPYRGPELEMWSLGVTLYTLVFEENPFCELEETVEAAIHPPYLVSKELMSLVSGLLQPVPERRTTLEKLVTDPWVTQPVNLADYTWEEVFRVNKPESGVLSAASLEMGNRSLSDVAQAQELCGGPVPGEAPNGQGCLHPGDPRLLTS
Sequence of BTK(R28H)(h) (Q06187 whole entry R28H): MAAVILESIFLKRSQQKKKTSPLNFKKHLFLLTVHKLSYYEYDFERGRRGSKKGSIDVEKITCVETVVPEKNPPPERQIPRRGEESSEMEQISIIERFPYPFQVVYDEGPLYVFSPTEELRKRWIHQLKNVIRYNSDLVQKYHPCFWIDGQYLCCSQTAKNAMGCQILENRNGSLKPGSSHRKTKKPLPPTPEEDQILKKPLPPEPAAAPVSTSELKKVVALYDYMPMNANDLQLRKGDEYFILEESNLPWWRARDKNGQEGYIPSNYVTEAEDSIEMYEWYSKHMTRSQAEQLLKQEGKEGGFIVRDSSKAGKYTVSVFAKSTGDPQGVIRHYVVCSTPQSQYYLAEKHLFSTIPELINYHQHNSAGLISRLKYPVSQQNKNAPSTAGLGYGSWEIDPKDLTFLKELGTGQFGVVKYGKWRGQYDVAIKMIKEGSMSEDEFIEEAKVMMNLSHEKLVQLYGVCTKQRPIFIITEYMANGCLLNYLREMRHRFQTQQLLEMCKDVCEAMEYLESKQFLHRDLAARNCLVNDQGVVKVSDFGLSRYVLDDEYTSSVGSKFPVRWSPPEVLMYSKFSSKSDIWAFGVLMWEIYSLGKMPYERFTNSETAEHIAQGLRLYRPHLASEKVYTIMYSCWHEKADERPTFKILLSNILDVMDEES
Sequence of MAPK2(h) (P28482 whole entry): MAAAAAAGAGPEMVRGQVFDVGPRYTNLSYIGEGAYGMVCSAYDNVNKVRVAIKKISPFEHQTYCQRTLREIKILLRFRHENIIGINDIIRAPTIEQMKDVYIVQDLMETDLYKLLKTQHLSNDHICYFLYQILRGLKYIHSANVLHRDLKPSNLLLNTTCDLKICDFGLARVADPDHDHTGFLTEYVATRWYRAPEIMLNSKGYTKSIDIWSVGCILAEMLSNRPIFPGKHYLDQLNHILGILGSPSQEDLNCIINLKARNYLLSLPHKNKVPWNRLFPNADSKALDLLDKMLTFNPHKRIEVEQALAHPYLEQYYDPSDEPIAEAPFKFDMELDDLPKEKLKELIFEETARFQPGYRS

Cc1cc2c(F)c(Oc3nc(Nc4cc(C5CC5)[nH]n4)cc(N4CCN(C)CC4)n3)cc(F)c2[nH]1 [NTW-3475]
Activity % [1]: 97%
Activity % [2]: 60%
Activity % [3]: 91%
Activity % [4]: 34%
Activity % [5]: 52%
Activity % [6]: 95%
Activity % [7]: 101%
Activity % [8]: 46%
Activity % [9]: 103%
Activity % [10]: 96%
Activity % [11]: 86%
Activity % [12]: 6%
Activity % [13]: 59%
Activity % [14]: 107%
Activity % [15]: 90%
Activity % [16]: 84%
Activity % [17]: 1%
Activity % [18]: 112%
Activity % [19]: 101%
Activity % [20]: 115%
Activity % [21]: 90%
Activity % [22]: 0%
Activity % [23]: 12%
Activity % [24]: 58%
Activity % [25]: 82%
Activity % [26]: −2%
Activity % [27]: 105%
Activity % [28]: 108%
Activity % [29]: 52%
Activity % [30]: 103%
Activity % [31]: 0%
Activity % [32]: 117%
Activity % [33]: 88%
Activity % [34]: 91%
Activity % [35]: −4%
Activity % [36]: −1%
Activity % [37]: −9%
Activity % [38]: 30%
Activity % [39]: 2%
